{"source": "patent US20260325580A1", "about": "“CYTOTOXICITY TARGETING CHIMERAS FOR CAR-T AND CAR-NK CELLS” (GLAXOSMITHKLINE INTELLECTUAL PROPERTY DEVELOPMENT LIMITED, priority 2023, published 2026)", "format_in_all_cases": "cell-based", "key": {"LNCap (PSMA+) cells [1]": {"tested_on": "LNCap (PSMA+) cells", "experiment": "In vitro cell killing, Method 3: Live-Cell Analysis assay (Incucyte), PSMA-expressing target cells (LNCap)", "conditions": "Homo sapiens, 24 hour timepoint, 5:1 effector cells to target cells, EC50 in molar (M), read-out: Incucyte ® pEC50, LNCap (converted)", "method": "(§1) In vitro cell killing of antigen expressing target cells in the presence of anti-cotinine CAR-T or CAR-NK cells and antigen matched CyTaCs was evaluated by three different methods: Cell Titler Glo assay (method 1); Real-Time Cell Analysis (RTCA) Impedance Assay (method 2); and live cell analysis assay (method 3), as described below.\nMethod 3: Live-Cell Analysis Assay (Incucyte®)\nA Live-Cell Analysis assay (Incucyte®) was performed to assess in vitro cell killing of fluorescently-labelled antigen-expressing adherent target cells co-incubated with anti-cotinine immune effector cells (i.e. CAR-T cells, CAR-NK92 cells) and antigen matched CyTaCs. To perform the live-cell analysis assay, fluorescently-labelled antigen-expressing target cells were seeded at a density of 1.0×10^4 to 3×10^4 cells per 100 μL of media, and grown overnight in a 37° C. incubator. The next day, 50 μL of antigen-matched CyTaC solution was added at a concentration to result in 10 μM to 0.01 nM final assay concentration, followed by the addition of 50 μL anti-cotinine immune effector cells (i.e. CAR-T cells, CAR-NK92 cells) at a ratio of 5:1 effector cells to antigen-presenting target cells. The samples were placed in Live-Cell Analysis (Incucyte®) instrument, and the fluorescence of the wells was recorded every 2 hours for an additional 24 to 48 hours.\n(§2) CyTaC compounds of Formula (I) were evaluated for anti-cotinine immune cell (i.e. CAR-T, CAR-NK92) mediated cell cytotoxicity as measured by fluorescence of viable cells in the above assay in one or more experimental runs and the results are shown in Table 7 and FIG. 4. Potency of the compounds of Formula (I) is reported as a pEC50 value at the 24 hour timepoint. The pEC50 value is the negative log of the EC50 value, wherein the EC50 value is half maximal effective concentration measured in molar (M). For compounds tested in more than one experimental run, the pEC50 value is reported as an average."}, "LNCap (PSMA+) cells [2]": {"tested_on": "LNCap (PSMA+) cells", "experiment": "Pro-inflammatory cytokine (IFN-gamma) production assay, PSMA-expressing target cells (LNCap), MSD ELISA", "conditions": "Homo sapiens, EC50 in molar (M)", "method": "(§3) Example 4: Immune Effector Cell (i.e., Anti-Cotinine CAR-T Cell, Anti-Cotinine CAR-NK92 Cell) Functional Study: Pro-Inflammatory Cytokine (e.g., IFN-Gamma) Production Assay\n(§4) An ELISA assay was performed to quantify the level of IFN-gamma production by anti-cotinine CAR-T cells in the presence of CyTaC using a Meso Scale Discovery (MSD) T-Plex Multispot Cytokine Assay System. To perform the ELISA assay, each sample was obtained from the co-incubation of anti-cotinine immune effector cells (i.e. CAR-T, CAR-NK92), antigen-expressing target cells, and respective antigen-targeting CyTaCs. CAR-T and CAR-NK cells were prepared as described above in Examples 2 and 3, respectively.\nAntigen-expressing target cells were pre-seeded at a density 1.5×10^4 cells per 100 μL of media in each well of a 96-well plate and grown overnight. For functional confirmation of immune effector cell (i.e. anti-cotinine CAR-T cells, anti-cotinine CAR-NK92 cells) activation, 100 nM or 10 nM of CyTaC was introduced into each well where the target cells were seeded to activate the anti-cotinine immune effector cell. For dose response determinations, 10 μM to 0.01 nM of CyTaC was added to the wells. The anti-cotinine immune effector cells (i.e. CAR-T, CAR-NK92) were next added to the wells at a fixed ratio (between 1:1 and 10:1) of effector cells to antigen-expressing After co-incubation, the supernatants were removed from the wells and analyzed to determine IFNγ release using a pro-inflammatory cytokine production assay (Meso Scale Diagnostics V-PLEX Human IFNγ Kit) according to manufacturer's protocol.\nFor dose response determinations, EC50 calculations were done using Graphpad Prism Software, specifically a nonlinear regression curve fit (Y=Bottom+(Top−Bottom)/(1+10^((Log EC50−X)*HillSlope))).\nas §2, with “tested” for “evaluated”, “activation” for “mediated cell cytotoxicity”, “IFN-Gamma production” for “fluorescence of viable cells”, “5.” for “7 and FIG. 4.”, “value.” for “value at the 24 hour timepoint.”"}, "[3]": {"tested_on": "PSMA-expressing target cells", "experiment": "In vitro cell killing, Method 1: CellTiter-Glo luminescent cell viability assay, PSMA-expressing target cells", "conditions": "24 hours, EC50 in molar (M)", "method": "as §1\n(§5) A luminescent assay was performed to quantify the number of viable cells remaining following co-incubation of antigen-expressing adherent target cells, anti-cotinine CAR-T cells, and antigen matched CyTaCs using a CellTiter-Glo Luminescent Cell Viability Assay (Promega). […] After co-incubation, the supernatants were removed from the wells, the residual adherent target cells in the wells were then analyzed for cell viability using CellTiter-Glo® Luminescent Cell Viability Assay (Promega) according to manufacturer's instructions, as described below in Example 5.\n(§6) CyTaC compounds of Formula (I) were evaluated for anti-cotinine immune cell mediated cell cytotoxicity in the above assay in one or more experimental runs and the results are shown in Table 6 below and FIGS. 2A, 2B, and 2C. […] The pEC50 value is the negative log of the EC50 value, wherein the EC50 value is half maximal effective concentration measured in molar (M). […]"}, "[4]": {"tested_on": "FAP-expressing target cells", "experiment": "In vitro cell killing, Method 1: CellTiter-Glo luminescent cell viability assay, FAP-expressing target cells", "conditions": "24 hours, EC50 in molar (M)", "method": "as §1, §5, §6"}, "[5]": {"tested_on": "FAP-expressing target cells", "experiment": "Pro-inflammatory cytokine (IFN-gamma) production assay, FAP-expressing target cells", "conditions": "EC50 in molar (M)", "method": "as §3, §4\n(§7) Antigen-expressing target cells were pre-seeded at a density 1.5×10^4 cells per 100 μL of media in each well of a 96-well plate and grown overnight. […] The anti-cotinine immune effector cells (i.e. CAR-T, CAR-NK92) were next added to the wells at a fixed ratio (between 1:1 and 10:1) of effector cells to antigen-expressing After co-incubation, the supernatants were removed from the wells and analyzed to determine IFNγ release using a pro-inflammatory cytokine production assay (Meso Scale Diagnostics V-PLEX Human IFNγ Kit) according to manufacturer's protocol. […]"}, "[6]": {"tested_on": "αVβ6-expressing target cells", "experiment": "Pro-inflammatory cytokine (IFN-gamma) production assay, αVβ6-expressing target cells", "conditions": "EC50 in molar (M)", "method": "as §3, §4, §7"}, "[7]": {"tested_on": "αVβ6-expressing target cells", "experiment": "In vitro cell killing, Method 1: CellTiter-Glo luminescent cell viability assay, αVβ6-expressing target cells", "conditions": "anti-cotinine CAR-T, 24 hours, EC50 in molar (M), read-out: Cell Titler Glo pEC50 (CAR-T) (converted)", "method": "as §1, §5, §6"}, "[8]": {"tested_on": "FOLR-expressing target cells", "experiment": "In vitro cell killing, Method 1: CellTiter-Glo luminescent cell viability assay, FOLR-expressing target cells", "conditions": "24 hours, EC50 in molar (M)", "method": "as §1, §5, §6"}, "[9]": {"tested_on": "FOLR-expressing target cells", "experiment": "Pro-inflammatory cytokine (IFN-gamma) production assay, FOLR-expressing target cells", "conditions": "EC50 in molar (M)", "method": "as §3, §4, §7"}, "[10]": {"conditions": "CAR-T cell activation, PSMA-targeting CyTaCs, read-out: IFNγ Production pEC50, LNCap (converted)"}, "[11]": {"conditions": "anti-cotinine CAR-NK, read-out: Cell Titler Glo pEC50 (CAR-NK) (converted)"}, "[12]": {"conditions": "anti-cotinine CAR-T, read-out: Cell Titler Glo pEC50 (CAR-T) (converted)"}, "[13]": {"conditions": "anti-cotinine CAR-NK, read-out: IFNγ Production pEC50 (CAR-NK) (converted)"}, "[14]": {"conditions": "anti-cotinine CAR-T, read-out: IFNγ Production pEC50 (CAR-T) (converted)"}}, "note": "Read-outs that look alike come from different tables or passages of the source."}
{"compound": "CN1C(=O)C[C@H](C(=O)NCCO[C@H]2CC[C@H](OCCCC(=O)N[C@H]3CC[C@H](C(=O)N[C@@H](Cc4ccc5ccccc5c4)C(=O)NCCCC[C@H](NC(=O)N[C@@H](CCC(=O)O)C(=O)O)C(=O)O)CC3)CC2)[C@H]1c1cccnc1", "note": "[compound 1]", "values": [{"measurement": "EC50", "setting": "LNCap (PSMA+) cells [1]", "result": "2.51e-10", "unit": "M"}, {"measurement": "EC50", "setting": "LNCap (PSMA+) cells [2]; [10]", "result": "1.58e-10", "unit": "M"}, {"measurement": "EC50", "setting": "LNCap (PSMA+) cells [2]; anti-cotinine CAR-NK, PSMA-expressing target cells, read-out: IFNγ Production pEC50 (CAR-NK) (converted)", "result": "1.58e-11", "unit": "M"}, {"measurement": "EC50", "setting": "LNCap (PSMA+) cells [2]; anti-cotinine CAR-T, PSMA-expressing target cells, read-out: IFNγ Production pEC50 (CAR-T) (converted)", "result": "1.58e-10", "unit": "M"}, {"measurement": "EC50", "setting": "[3]; [11]", "result": "3.98e-11", "unit": "M"}, {"measurement": "EC50", "setting": "[3]; [12]", "result": "1.58e-10", "unit": "M"}]}
{"compound": "CN(CCNC(=O)[C@H]1CC[C@H](NC(=O)CCCO[C@H]2CC[C@H](OCCNC(=O)[C@H]3CC[C@H](NC(=O)CCCO[C@H]4CC[C@H](OCCNC(=O)[C@H]5CC(=O)N(C)[C@@H]5c5cccnc5)CC4)CC3)CC2)CC1)c1ccc2nccc(C(=O)NCC(=O)N3CC(F)(F)C[C@H]3C#N)c2c1", "note": "[compound 7]", "values": [{"measurement": "EC50", "setting": "[4]; [11]", "result": "5.01e-10", "unit": "M"}, {"measurement": "EC50", "setting": "[4]; [12]", "result": "2e-10", "unit": "M"}, {"measurement": "EC50", "setting": "[5]; [13]", "result": "5.01e-11", "unit": "M"}, {"measurement": "EC50", "setting": "[5]; [14]", "result": "1e-09", "unit": "M"}]}
{"compound": "CN1C(=O)C[C@H](C(=O)NCCNC(=O)[C@H](Cc2ccccc2)NC(=O)[C@H](Cc2ccccc2)NC(=O)CCCCCCCNC(=O)CC[C@H](NC(=O)N[C@@H](CCC(=O)O)C(=O)O)C(=O)O)[C@H]1c1cccnc1", "note": "[compound 3]", "values": [{"measurement": "EC50", "setting": "LNCap (PSMA+) cells [1]", "result": "1.26e-08", "unit": "M"}, {"measurement": "EC50", "setting": "LNCap (PSMA+) cells [2]; [10]", "result": "1e-07", "unit": "M"}]}
{"compound": "CN1C(=O)C[C@H](C(=O)NCCO[C@H]2CC[C@H](OCCCC(=O)N[C@H]3CC[C@H](C(=O)N4CCN(c5cccc([C@H](CC(=O)O)CN6CC[C@@H](CCc7ccc8c(n7)NCCC8)C6)c5)CC4)CC3)CC2)[C@H]1c1cccnc1", "note": "[compound 5]", "values": [{"measurement": "EC50", "setting": "[6]; [13]", "result": "5.01e-10", "unit": "M"}, {"measurement": "EC50", "setting": "[6]; [14]", "result": "6.31e-10", "unit": "M"}, {"measurement": "EC50", "setting": "[7]", "result": "2.51e-10", "unit": "M"}]}
{"compound": "CN1C(=O)C[C@H](C(=O)NCCO[C@H]2CC[C@H](OCCCC(=O)N[C@H]3CC[C@H](C(=O)NCCNC(=O)CC[C@H](NC(=O)N[C@@H](CCC(=O)O)C(=O)O)C(=O)O)CC3)CC2)[C@H]1c1cccnc1", "note": "[compound 4]", "values": [{"measurement": "EC50", "setting": "LNCap (PSMA+) cells [1]", "result": "1e-08", "unit": "M"}, {"measurement": "EC50", "setting": "LNCap (PSMA+) cells [2]; [10]", "result": "5.01e-08", "unit": "M"}]}
{"compound": "CN1C(=O)C[C@H](C(=O)NCCO[C@H]2CC[C@H](OCCCC(=O)N[C@H]3CC[C@H](C(=O)NCCNC(=O)[C@H](Cc4ccccc4)NC(=O)[C@H](Cc4ccccc4)NC(=O)CCCCCCCNC(=O)CC[C@H](NC(=O)N[C@@H](CCC(=O)O)C(=O)O)C(=O)O)CC3)CC2)[C@H]1c1cccnc1", "note": "[compound 2]", "values": [{"measurement": "EC50", "setting": "LNCap (PSMA+) cells [1]", "result": "3.98e-09", "unit": "M"}, {"measurement": "EC50", "setting": "LNCap (PSMA+) cells [2]; [10]", "result": "5.01e-08", "unit": "M"}]}
{"compound": "CN1C(=O)C[C@H](C(=O)NCCO[C@H]2CC[C@H](OCCCC(=O)N[C@H]3CC[C@H](C(=O)NCCNC(=O)CC[C@H](NC(=O)c4ccc(NCc5cnc6nc(N)[nH]c(=O)c6n5)cc4)C(=O)O)CC3)CC2)[C@H]1c1cccnc1", "note": "[compound 6]", "values": [{"measurement": "EC50", "setting": "[8]; [11]", "result": "1e-09", "unit": "M"}, {"measurement": "Cell Titler Glo pEC50 (CAR-T)", "setting": "[8]; anti-cotinine CAR-T", "result": "Inactive"}, {"measurement": "EC50", "setting": "[9]; [13]", "result": "2.51e-12", "unit": "M"}, {"measurement": "EC50", "setting": "[9]; [14]", "result": "1.58e-08", "unit": "M"}]}
